Common to all, as to type: functional
What all share (details): HCT-116, 72 h, time 3 day

The subject of assay [1] is HCT-116. In words: Antiproliferative activity against human HCT-116 cells assessed as cell growth inhibition at 20 uM after 3 days by ATPlite assay relative to control.
For assay [2], the system named is HCT-116. The assay can be described thus: Antiproliferative activity against human HCT-116 cells assessed as cell growth inhibition at 10 uM after 3 days by ATPlite assay relative to control. On the technique in general: Cellular ATP, detected with luciferase, serves as a proxy for viable cell number.
For assay [3], the system named is HCT-116. In words: Antiproliferative activity against human HCT-116 cells assessed as cell growth inhibition at 1 uM after 3 days by ATPlite assay relative to control.
The subject of assay [4] is HCT-116. In words: Antiproliferative activity against human HCT-116 cells assessed as cell growth inhibition at 0.4 uM after 3 days by ATPlite assay relative to control.

The structures appear in SMILES notation.

Usually inhibition stands for the drop in the measured response relative to a control, in per cent.

`COc1ccc(/C=C/C(=O)O[C@@H]2CC[C@@H]3CCC[C@H](CC(=O)O)N3[C@H]2C)cc1`: the inhibition at 20 µM in assay [1] was found to be 80.2%. In addition, in assay [2], the inhibition at 10 µM turned out to be 62.3%. Moreover, the inhibition at 1 µM in assay [3] came out at 0.9%. Also, the inhibition at 0.4 µM in assay [4] was -6.1%.
The matching figures for `C[C@H]1[C@H](OC(=O)/C=C/c2ccccc2)CC[C@@H]2CCC[C@H](CC(=O)O)N21`: 0.7%, -4.2%, -7.8% and -3.6%.
As to `C[C@H]1[C@H](OC(=O)c2ccccc2)CC[C@@H]2CCC[C@H](CC(=O)O)N21`, the inhibition at 20 µM in assay [1] was -6.2%. The inhibition at 10 µM in assay [2] is -10.2%. Also, the inhibition at 1 µM in assay [3] is -4.3%. In addition, in assay [4], the inhibition at 0.4 µM was -12.8%.
As for `COc1ccc(C(=O)O[C@@H]2CC[C@@H]3CCC[C@H](CC(=O)O)N3[C@H]2C)c(OC)c1`, in assay [1], the inhibition at 20 µM is -3.2%. Further, in assay [2], the inhibition at 10 µM is -4.7%. In assay [3], the inhibition at 1 µM was -8%. For the same compound, the inhibition at 0.4 µM in assay [4] was -6.1%.
The like results for `COc1ccc(C(=O)O[C@@H]2CC[C@@H]3CCC[C@H](CC(=O)O)N3[C@H]2C)cc1OC` were, in that order, -13.1%, -6.4%, -5.5% and -3.6%.
The like results for `COc1cccc2c1C(=O)c1c(O)c3c(c(O)c1C2=O)C[C@@](O)(C(=O)CO)C[C@@H]3O[C@H]1C[C@H](N)[C@H](O)[C@H](C)O1` [DOXORUBICIN] were, in that order, 91.7%, 91.1%, 96.3% and 84.5%.

The values above are taken from ChEMBL document CHEMBL5033988, “Quinolizidine Alkaloids from Cylicomorpha solmsii” (2021).
